Experimental data from patent publication US9149472B2, “Controlled release compositions for treatment of cognitive, emotional and mental ailments and disorders” (priority 2004, dated 2015).

Experiments:
[1] = tested on: mild permanent cognitive and short term memory loss; experiment: Case study Patient 1: mild permanent cognitive and short term memory loss after mold exposure; format: in vivo, human
Protocol: A case study of a patient having a long history of allergies was performed.
A typical dosage of the Singulair® is about 10 mg.
A 10 mg tablet can be taken orally upon awakening. […] In a typical implementation, the patient can take another 10 mg dose in about two hours after the initial dose. […] Similar booster dosages can be taken at 3-4 hour intervals throughout the day. […] The Singulair® product typically recommends 10 mg per day.
In another embodiment, a zafirlukast product such as Accolate® and Vanticon® can be implemented. In one implementation, a 20 mg oral dose can be taken upon awakening followed by a 10 mg dose after 2 hours and a 10 mg repeated dose in 4 hours and a final dose of 20 mg another 4 hours later. […] The Accolate® recommended dosage is 20 mg in the morning and evening.

[2] = tested on: decreased concentration and focus, memory recall and forgetfulness issues; experiment: Case study Patient 4: person with decreased concentration, focus and memory recall, plus depression and anxiety; format: in vivo, human; conditions: 10 mg in the morning along with an antidepressant, additional 10 mg about every 2 hours during waking hours
Description: A person with symptoms of decreased concentration and focus along with memory recall and forgetfulness issues. The patient was also diagnosed with depression and anxiety.

[3] = tested on: symptoms of cognitive ailments; experiment: Case study Patient 6: person with cognitive ailments, single morning dose; format: in vivo, human
[4] = tested on: symptoms of cognitive ailments; conditions: Patient 3
[5] = tested on: memory loss, cognitive, emotional ailments
Protocol: In most cases, treatment of these ailments requires multiple dosages of 5 mg to 20 mg over the course of the day.

[6] = tested on: mild symptoms of forgetfulness; experiment: Case study Patient 2: person with mild symptoms of forgetfulness
[7] = tested on: forgetfulness and problems with word recall; experiment: Case study Patient 5: person with forgetfulness and word recall problems

## COc1cc(C(=O)NS(=O)(=O)c2ccccc2C)ccc1Cc1cn(C)c2ccc(NC(=O)OC3CCCC3)cc12 [Accolate®, zafirlukast]
[1]; Patient 1, oral 20 mg upon awakening, 10 mg after 2 hours, 10 mg after 4 hours, 20 mg 4 hours later, highest daily dosage 80 mg
  focus and disposition: heightened focus but results in a less “wired” disposition

## CC(C)(O)c1ccccc1CC[C@@H](SCC1(CC(=O)[O-])CC1)c1cccc(/C=C/c2ccc3ccc(Cl)cc3n2)c1.[Na+] [montelukast sodium]
[1]; Patient 1, 20-30 mg upon waking
  time to relief / marked improvement after the initial higher dosage: 30 to 45 min
[1]; Patient 1, about 20-30 mg
  apathy: marked decrease in apathy
  sense of humor: increase in sense of humor
[1]; Patient 1, about 20-30 mg (2-3 times the typical dosage)
  cognitive, mental and emotional improvement: marked cognitive, mental and emotional improvement
[1]; Patient 1, additional 10 mg dose every four hours
  effect of additional doses on relief: continues the relief
[1]; Patient 1, after the dosage is ceased
  time to return of symptoms after ceasing the dosage: ≤ 24 h
[1]; Patient 1, as prescribed for allergies, typical dosage about 10 mg
  cognitive effect when taking the medication: cognitive improvement
[1]; booster dosages of 5 mg about every 2 hours, maximum 40 mg in one day
  mental state under mega-dosing: very talkative mental states and highly sensitive mental alertness
[2]
  symptoms: significant improvement in symptoms
[3]; 50 mg once upon rising in the morning
  mental clarity and mood: improved mental clarity in the morning and better mood throughout the day
[3]; 80 mg once upon rising in the morning
  mental clarity and mood: improved mental clarity in the morning and better mood throughout the day
[4]
  side effects: No side effects noted
[4]; 10 mg in the morning, additional 10 mg about every 2 hours during waking hours
  symptoms while on medication: significant improvement in symptoms
[5]; immediate release dosages larger than 30 mg
  mood with large immediate release dosages: improved mood
[5]; in most cases multiple dosages of 5 mg to 20 mg over the day
  effect on ailments (overall finding): alleviate and treat memory loss, forgetfulness, apathy, emotional and cognitive ailments, and depression
[6]
  side effects: No side effects reported
[6]; 20 mg in the morning, additional 10-20 mg about every 2 hours during waking hours
  time to improvement in symptoms after onset of medication use: ≤ 24 h
[6]; after the five-day course was stopped
  symptoms after stopping second course: the symptoms returned again
[6]; stopped after over a week
  time to recurrence of symptoms after discontinuation: ≤ 24 h
[6]; two weeks later, same regimen for five days
  symptoms during second course: marked improvement in symptoms
[7]
  other side effects: No other side effects noted
  time to improvement after initiation of the protocol: ≤ 24 h
[7]; 10 mg in the morning, additional 10 mg about every 2 hours during waking hours, five days
  memory and recall issues: significant improvement in memory and recall issues
[7]; 6 doses of 10 mg daily
  sleep (side effect) at 6 doses daily: difficulty sleeping
[7]; discontinued after five days
  time to recurrence of symptoms after discontinuation: 24 to 48 h
[7]; schedule reduced to five doses daily
  sleep (side effect) at five doses daily: the problem was resolved
